Reference: ChEMBL document CHEMBL1201862, “PubChem BioAssay data set” (2004)
Active and inactive are the calls of the source. Rule as the data show it, for most assays here: actives have a measured EC50 and inactives only a lower limit.

Experiments:
[1] = inhibitors of SNCA 5'UTR-driven reporter translation, confirmation, H4 neuroglioma cells, luminescence (AID 1988); format: functional, cell-based
BJ [2] = test: cells; format: functional, cell-based; conditions: Homo sapiens
cells [3] = format: functional, cell-based
Streptokinase A = molecular target: T1, Streptokinase A (Streptococcus pyogenes serotype M1, UniProt P10520); test: S. pyogenes streptokinase expression inhibitors, potency, dose response, plasminogen activation absorbance, OD405 (AID 1914); format: functional, Streptococcus pyogenes M1 GAS;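 also: secreted streptokinase activity via plasminogen activation per viability signal from cell pellet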
T1 sequence (P10520 whole entry): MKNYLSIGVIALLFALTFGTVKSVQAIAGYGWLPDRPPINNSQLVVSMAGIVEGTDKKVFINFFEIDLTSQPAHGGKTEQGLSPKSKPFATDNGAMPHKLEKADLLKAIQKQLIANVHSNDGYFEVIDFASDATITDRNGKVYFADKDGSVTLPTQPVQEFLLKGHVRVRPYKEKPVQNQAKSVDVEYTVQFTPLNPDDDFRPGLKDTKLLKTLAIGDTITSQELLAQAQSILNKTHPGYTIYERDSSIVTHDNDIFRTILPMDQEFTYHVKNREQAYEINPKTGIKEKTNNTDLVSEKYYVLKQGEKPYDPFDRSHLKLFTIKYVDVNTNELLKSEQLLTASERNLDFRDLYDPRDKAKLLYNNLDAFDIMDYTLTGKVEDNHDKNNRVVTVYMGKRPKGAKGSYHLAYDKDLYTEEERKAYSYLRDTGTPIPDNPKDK

[4] = cytotoxicity toward DRD oncogenic fibroblasts, dose response, cell-based, non-viral oncogenic, luminescence (AID 1934); format: functional; conditions: Homo sapiens
Streptococcus = test: Group A Streptococcus viability loss, dose response, counter-screen for streptokinase expression inhibitor project, luminescence, BacTiterGlo (AID 1915); format: functional, organism-based;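 also: potency for reduction of bacterial viability or growth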
Nonstructural protein 1 = Nonstructural protein 1 (Influenza A virus, UniProt Q194T2); format: functional, Influenza A virus (A/California/07/2009(H1N1))
Nonstructural protein 1, sequence (Q194T2 whole entry): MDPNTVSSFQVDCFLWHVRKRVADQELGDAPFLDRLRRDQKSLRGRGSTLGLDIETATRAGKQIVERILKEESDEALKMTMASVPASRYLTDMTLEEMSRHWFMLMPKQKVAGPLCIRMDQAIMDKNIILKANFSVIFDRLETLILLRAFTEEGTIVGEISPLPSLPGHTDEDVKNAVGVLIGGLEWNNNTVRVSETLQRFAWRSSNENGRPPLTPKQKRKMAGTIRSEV

[5] = Luminescence Cell-Based Dose Response HTS to Identify Inhibitors of 5'UTR Stem-Loop Driven Prion Protein mRNA Translation in H4 Neuroglioblastoma Cells. [Related pubchem assays: 1827 (Project Summary), 1813 (Primary HTS)]; format: functional
BJ [6] = test: cytotoxicity toward BJ-TERT-LT-ST fibroblasts, dose response, cell-based, RAS-independent, luminescence (AID 1935); format: functional; conditions: Homo sapiens;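 also: BJ fibroblasts immortalized with TERT plus LT and ST oncogenes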
BJ [7] = test: cytotoxicity toward BJ-TERT fibroblasts, dose response, cell-based, RAS-independent, luminescence (AID 1933); format: functional; conditions: Homo sapiens
[8] = inhibitors of firefly luciferase expression or activity, dose response, H4 neuroglioma cells, luminescence (AID 1990); format: functional, cell-based
cells [9] = format: functional, cell-based; remark: listed apart in the source
Exodeoxyribonuclease V = Exodeoxyribonuclease V (Escherichia coli (strain K12), UniProt P04993+P07648+P08394); test: E. coli RecBCD inhibitors, dose response, counter-screen for AddAB inhibitor project, absorbance, V66 E. coli, mutant T4 phage (AID 492957); format: functional, cell-based, Escherichia coli str. K-12 substr. MG1655
Exodeoxyribonuclease V, sequence (P04993 whole entry): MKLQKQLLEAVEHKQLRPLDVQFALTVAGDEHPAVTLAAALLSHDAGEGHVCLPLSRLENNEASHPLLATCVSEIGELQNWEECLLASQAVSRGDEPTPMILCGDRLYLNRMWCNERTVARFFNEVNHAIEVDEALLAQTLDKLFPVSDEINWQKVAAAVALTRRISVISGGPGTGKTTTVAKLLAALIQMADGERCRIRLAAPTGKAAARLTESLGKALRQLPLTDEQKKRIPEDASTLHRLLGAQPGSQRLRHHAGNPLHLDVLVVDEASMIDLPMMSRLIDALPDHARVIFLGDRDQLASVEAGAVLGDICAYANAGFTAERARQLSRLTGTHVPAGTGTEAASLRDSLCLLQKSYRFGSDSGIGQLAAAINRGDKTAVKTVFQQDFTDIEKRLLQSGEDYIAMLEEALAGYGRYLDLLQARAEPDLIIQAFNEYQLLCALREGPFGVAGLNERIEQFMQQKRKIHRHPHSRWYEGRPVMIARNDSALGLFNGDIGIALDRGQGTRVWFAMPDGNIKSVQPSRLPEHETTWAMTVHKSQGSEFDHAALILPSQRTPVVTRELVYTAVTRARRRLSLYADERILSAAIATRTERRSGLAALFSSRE
Exodeoxyribonuclease V, sequence (P07648 whole entry): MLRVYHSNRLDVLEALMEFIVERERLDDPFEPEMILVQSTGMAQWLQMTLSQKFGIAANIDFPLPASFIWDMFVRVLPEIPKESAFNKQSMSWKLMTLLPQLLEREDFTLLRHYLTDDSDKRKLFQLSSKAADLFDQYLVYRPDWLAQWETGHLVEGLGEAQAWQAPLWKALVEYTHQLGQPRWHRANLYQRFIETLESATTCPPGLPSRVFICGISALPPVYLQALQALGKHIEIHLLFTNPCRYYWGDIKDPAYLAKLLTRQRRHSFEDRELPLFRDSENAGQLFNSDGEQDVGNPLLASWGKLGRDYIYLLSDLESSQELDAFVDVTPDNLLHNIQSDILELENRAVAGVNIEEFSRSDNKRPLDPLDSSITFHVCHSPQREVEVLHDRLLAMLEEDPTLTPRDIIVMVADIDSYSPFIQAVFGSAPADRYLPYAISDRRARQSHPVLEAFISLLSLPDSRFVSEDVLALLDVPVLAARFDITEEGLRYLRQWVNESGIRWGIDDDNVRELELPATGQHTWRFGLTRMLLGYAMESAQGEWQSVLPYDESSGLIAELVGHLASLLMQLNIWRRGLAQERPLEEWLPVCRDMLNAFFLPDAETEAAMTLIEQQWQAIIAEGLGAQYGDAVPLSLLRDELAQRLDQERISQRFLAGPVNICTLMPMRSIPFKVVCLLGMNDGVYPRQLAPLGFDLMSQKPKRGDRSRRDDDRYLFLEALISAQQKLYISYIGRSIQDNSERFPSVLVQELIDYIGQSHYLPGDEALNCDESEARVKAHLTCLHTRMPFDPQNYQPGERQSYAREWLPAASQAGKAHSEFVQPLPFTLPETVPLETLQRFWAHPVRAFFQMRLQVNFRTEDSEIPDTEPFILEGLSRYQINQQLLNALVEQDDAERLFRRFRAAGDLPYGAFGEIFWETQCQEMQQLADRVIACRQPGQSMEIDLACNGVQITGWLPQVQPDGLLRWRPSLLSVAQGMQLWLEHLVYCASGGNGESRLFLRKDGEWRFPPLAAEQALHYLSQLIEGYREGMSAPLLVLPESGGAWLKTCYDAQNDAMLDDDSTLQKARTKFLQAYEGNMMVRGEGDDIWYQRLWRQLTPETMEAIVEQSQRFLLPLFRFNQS
Exodeoxyribonuclease V, sequence (P08394 whole entry): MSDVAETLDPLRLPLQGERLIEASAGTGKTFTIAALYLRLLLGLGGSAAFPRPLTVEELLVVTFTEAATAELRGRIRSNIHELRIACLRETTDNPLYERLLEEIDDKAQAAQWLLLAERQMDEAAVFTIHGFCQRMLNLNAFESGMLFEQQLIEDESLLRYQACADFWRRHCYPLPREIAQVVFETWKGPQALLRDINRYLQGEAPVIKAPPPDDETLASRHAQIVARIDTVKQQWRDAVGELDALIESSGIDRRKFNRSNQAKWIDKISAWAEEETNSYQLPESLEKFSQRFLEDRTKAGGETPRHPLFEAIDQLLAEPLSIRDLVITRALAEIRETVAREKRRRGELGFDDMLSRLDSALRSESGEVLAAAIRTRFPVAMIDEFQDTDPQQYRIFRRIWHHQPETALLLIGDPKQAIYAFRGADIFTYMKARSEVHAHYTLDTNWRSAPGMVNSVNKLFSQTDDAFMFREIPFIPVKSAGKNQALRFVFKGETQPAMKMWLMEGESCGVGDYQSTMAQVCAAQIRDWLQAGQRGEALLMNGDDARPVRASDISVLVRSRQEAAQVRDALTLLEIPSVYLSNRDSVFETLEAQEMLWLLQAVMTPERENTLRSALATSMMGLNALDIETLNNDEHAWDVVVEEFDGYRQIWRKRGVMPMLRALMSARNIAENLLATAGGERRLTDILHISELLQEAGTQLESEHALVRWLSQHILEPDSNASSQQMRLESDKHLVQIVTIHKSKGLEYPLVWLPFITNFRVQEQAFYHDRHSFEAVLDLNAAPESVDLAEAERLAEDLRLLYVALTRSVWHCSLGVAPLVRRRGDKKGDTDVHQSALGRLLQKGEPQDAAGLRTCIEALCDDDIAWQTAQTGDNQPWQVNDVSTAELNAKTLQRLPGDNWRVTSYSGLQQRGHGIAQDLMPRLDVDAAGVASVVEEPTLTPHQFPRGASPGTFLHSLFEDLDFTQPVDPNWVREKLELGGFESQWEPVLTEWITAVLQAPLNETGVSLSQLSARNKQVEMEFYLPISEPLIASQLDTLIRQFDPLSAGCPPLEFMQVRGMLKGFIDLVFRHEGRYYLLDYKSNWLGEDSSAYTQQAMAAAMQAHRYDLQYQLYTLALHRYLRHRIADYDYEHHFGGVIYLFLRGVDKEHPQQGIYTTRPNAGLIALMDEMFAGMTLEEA

Protein RecA = molecular target: T2, Protein RecA (Mycobacterium tuberculosis, UniProt P9WHJ3); test: Fluorescence Cell-Free Homogeneous Dose Retest to Identify Inhibitors of RecA-Intein Splicing Activity. [Related pubchem assays (depositor defined):AID2097, AID2223, AID489010, AID492950]; format: functional
T2 sequence (P9WHJ3 whole entry): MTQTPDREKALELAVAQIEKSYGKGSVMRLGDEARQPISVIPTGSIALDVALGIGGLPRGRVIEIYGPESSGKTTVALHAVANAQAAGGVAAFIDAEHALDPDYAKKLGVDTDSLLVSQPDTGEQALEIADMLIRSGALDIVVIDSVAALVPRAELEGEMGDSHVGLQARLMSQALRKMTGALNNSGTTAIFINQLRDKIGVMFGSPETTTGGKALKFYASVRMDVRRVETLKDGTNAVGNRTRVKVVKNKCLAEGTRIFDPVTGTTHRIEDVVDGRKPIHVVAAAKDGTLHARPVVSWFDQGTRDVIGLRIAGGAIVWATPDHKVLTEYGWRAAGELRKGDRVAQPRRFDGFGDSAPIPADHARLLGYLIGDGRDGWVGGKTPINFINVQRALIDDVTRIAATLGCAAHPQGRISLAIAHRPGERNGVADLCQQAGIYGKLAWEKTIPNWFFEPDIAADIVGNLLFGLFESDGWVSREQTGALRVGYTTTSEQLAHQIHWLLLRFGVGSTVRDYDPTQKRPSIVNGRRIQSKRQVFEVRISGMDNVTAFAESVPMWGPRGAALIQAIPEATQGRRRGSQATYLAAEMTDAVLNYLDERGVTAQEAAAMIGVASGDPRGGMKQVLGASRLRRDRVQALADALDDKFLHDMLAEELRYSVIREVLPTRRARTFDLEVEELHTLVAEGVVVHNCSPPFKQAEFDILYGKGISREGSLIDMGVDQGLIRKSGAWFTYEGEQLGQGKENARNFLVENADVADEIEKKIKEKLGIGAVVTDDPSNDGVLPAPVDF

BJ [10] = test: cytotoxicity toward Ras-transformed BJeLR fibroblasts, dose response, cell-based, alamar blue fluorescence, cherrypicked samples (AID 2631); format: functional; conditions: Homo sapiens;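 also: confirmatory dose-response assay in RAS-dependent BJ fibroblasts engineered with TERT, LT and ST, with cytotoxicity read by fluorescence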
[11] = Counterscreen for AddAB inhibitors: absorbance-based bacterial cell-based high throughput dose response assay for inhibitors of bacterial viability. [Related pubchem assays (depositor defined):AID435030, AID449728, AID449731, AID488942, AID488955, AID488956]; format: functional
[12] = system: Streptococcus sp. 'group A'; test: growth inhibition of control SK(-) GAS strain, dose response, counter-screen for streptokinase expression inhibitor project, luminescence, kanamycin, BacTiterGlo, confirmation (AID 1900); format: functional, organism-based
[13] = molecular target: Heat shock protein HSP 90-alpha (Homo sapiens, UniProt P07900); format: functional, organism-based
[14] = molecular target: T3, Replicative DNA helicase DnaB (Mycobacterium tuberculosis, UniProt P9WMR3); test: DnaB intein splicing inhibitors, dose response, biochemical, cell-free fluorescence (AID 449749); format: functional
T3 sequence (P9WMR3 whole entry): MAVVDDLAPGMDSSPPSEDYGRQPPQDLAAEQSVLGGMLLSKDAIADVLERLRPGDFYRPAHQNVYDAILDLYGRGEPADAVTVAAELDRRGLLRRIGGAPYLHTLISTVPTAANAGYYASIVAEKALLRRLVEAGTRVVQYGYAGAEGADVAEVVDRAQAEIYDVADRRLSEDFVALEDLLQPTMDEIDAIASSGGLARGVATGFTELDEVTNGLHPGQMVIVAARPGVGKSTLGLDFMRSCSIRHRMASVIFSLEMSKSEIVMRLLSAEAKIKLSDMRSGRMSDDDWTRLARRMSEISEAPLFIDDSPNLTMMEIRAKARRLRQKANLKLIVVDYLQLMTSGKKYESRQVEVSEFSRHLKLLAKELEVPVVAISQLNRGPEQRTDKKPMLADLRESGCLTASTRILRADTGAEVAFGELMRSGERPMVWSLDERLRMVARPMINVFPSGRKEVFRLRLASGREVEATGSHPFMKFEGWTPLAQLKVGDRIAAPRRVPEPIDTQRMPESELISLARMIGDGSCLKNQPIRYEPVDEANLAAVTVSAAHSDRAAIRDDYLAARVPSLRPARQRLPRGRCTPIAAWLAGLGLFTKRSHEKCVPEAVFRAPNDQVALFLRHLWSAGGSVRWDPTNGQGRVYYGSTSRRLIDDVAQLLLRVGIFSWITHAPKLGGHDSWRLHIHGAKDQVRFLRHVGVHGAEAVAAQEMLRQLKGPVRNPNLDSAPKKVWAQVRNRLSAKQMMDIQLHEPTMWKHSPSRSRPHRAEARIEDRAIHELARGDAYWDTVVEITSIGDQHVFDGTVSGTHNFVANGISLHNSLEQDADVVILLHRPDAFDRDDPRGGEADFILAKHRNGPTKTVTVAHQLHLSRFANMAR

INS1 = test: beta cell apoptosis inhibitors, cytokine rescue, dose response, luminescence, retest (AID 449756); format: functional, cell-based; conditions: Rattus norvegicus, INS1;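 also: cell death triggered by IL-1 beta plus TNF-alpha plus IFN-gamma mixture; protective hits raise ATP signal compared with cytokine alone wells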
[15] = molecular target: Lysine-specific demethylase 4C (Homo sapiens, UniProt Q9H3R0); test: GASC-1 (JMJD2C) histone demethylase inhibitors, dose response, biochemical, DELFIA europium, cherry-picked samples (AID 488835); format: functional
Lysine-specific demethylase 4C, sequence (Q9H3R0 whole entry): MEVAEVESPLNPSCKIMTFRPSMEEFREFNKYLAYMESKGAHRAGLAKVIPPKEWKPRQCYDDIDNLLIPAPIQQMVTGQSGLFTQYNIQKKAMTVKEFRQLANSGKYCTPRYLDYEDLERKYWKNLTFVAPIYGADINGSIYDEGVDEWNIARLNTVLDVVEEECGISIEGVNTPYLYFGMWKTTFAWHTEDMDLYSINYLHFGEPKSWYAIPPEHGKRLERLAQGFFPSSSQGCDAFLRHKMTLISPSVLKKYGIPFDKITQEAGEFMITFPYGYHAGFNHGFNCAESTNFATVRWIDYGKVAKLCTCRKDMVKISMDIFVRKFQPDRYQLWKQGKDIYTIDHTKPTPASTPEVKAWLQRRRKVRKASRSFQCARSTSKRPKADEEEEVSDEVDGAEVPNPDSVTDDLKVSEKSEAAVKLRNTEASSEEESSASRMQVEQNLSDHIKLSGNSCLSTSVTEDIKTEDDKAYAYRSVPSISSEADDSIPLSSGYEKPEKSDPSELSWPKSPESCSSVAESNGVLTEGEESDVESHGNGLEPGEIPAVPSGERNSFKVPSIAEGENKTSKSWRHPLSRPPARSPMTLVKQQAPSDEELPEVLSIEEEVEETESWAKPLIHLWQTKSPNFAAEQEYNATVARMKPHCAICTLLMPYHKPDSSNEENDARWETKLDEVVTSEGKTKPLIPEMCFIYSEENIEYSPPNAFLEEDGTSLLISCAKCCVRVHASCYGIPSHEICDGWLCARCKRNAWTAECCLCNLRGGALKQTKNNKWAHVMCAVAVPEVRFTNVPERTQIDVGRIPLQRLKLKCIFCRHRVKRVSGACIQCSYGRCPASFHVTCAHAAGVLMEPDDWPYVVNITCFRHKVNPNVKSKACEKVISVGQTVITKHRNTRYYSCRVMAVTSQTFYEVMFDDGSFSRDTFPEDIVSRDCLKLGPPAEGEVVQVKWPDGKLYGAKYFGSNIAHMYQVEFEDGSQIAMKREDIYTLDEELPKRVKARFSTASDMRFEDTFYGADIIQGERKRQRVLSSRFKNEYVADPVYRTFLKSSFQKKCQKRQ

[16] = molecular target: DNA dC->dU-editing enzyme APOBEC-3A (Homo sapiens, UniProt P31941); test: APOBEC3A DNA deaminase inhibitors, dose response, biochemical (AID 504722); format: functional
DNA dC->dU-editing enzyme APOBEC-3A, sequence (P31941 whole entry): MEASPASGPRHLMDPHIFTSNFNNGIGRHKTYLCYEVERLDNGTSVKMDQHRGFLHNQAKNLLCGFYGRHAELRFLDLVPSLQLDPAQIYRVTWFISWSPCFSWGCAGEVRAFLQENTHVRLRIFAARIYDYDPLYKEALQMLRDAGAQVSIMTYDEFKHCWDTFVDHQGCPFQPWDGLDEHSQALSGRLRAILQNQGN

[17] = molecular target: T4, Mannose-6-phosphate isomerase (Homo sapiens, UniProt P34949); test: PMI enzyme inhibitors, confirmation, biochemical, fluorescence intensity (AID 1535)
T4 sequence (P34949 whole entry): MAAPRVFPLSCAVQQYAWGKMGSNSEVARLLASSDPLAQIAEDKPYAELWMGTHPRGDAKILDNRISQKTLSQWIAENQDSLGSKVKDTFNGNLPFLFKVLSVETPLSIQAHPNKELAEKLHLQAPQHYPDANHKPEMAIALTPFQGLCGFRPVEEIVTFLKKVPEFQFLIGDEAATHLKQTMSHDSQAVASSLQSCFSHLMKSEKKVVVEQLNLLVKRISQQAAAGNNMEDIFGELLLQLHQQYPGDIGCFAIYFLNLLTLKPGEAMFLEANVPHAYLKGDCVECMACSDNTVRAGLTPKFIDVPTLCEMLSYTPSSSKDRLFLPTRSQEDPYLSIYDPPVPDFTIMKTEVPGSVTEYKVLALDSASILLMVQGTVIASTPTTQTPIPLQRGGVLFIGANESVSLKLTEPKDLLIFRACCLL

[18] = molecular target: T4, Mannose-6-phosphate isomerase; test: human PMI inhibitors, high substrate, primary screen, biochemical, fluorescence intensity, high mannose 6-phosphate (AID 1220)
Phosphomannomutase 2 = Phosphomannomutase 2 (Homo sapiens, UniProt O15305); test: Counter screen SAR assay for PMM2 inhibitors via a fluorescence intensity assay. [Related pubchem assays (depositor defined):AID1545, AID1574]
Phosphomannomutase 2, sequence (O15305 whole entry): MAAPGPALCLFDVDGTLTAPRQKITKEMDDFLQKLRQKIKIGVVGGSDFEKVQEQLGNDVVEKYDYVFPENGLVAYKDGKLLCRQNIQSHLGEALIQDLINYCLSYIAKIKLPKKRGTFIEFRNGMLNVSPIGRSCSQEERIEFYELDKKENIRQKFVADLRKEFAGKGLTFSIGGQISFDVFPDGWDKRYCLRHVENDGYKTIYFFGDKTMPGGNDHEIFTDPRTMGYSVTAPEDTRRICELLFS

[19] = molecular target: DNA dC->dU-editing enzyme APOBEC-3G (Homo sapiens, UniProt Q9HC16); test: Dose Response confirmation of small molecule APOBEC3G DNA Deaminase Inhibitors via a fluorescence-based single-stranded DNA deaminase assay. [Related pubchem assays (depositor defined):AID493012, AID493028]; format: functional
DNA dC->dU-editing enzyme APOBEC-3G, sequence (Q9HC16 whole entry): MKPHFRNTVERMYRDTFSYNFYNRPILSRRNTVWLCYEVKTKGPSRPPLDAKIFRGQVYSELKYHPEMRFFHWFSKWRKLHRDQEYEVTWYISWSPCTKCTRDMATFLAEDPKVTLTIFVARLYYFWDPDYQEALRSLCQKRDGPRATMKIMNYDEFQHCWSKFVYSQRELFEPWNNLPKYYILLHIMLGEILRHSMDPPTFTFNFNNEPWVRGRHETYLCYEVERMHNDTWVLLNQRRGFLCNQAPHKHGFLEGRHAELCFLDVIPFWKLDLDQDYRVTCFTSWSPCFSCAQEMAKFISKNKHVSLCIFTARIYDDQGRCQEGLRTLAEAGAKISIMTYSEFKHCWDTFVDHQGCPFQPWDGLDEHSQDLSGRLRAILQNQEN

c1ccc(-c2nnc(-c3ccccn3)nc2NC2CCCCC2)cc1
EC50 [1]: 1.66 µM (inconclusive)
EC50 (BJ [2]): 4.7 µM (active)
EC50 (cells [3]): > 350 µM (not active)
EC50 (Streptokinase A): > 50 µM (not active)
EC50 [4]: 4.27 µM (active)
EC50 (Streptococcus): 4.21 µM (active)
IC50 (Nonstructural protein 1): 1.21 µM (active)
EC50 [5]: 18.8 µM (active)
EC50 (BJ [6]): 3.31 µM (inconclusive)
EC50 (BJ [7]): 3.21 µM (active)
EC50 [8]: 0.513 µM (inconclusive)
EC50 (cells [9]): 32.6 µM (active)
IC50 (Exodeoxyribonuclease V): > 39.5 µM (inactive)
EC50 (Protein RecA): 16.9 µM (active)
EC50 (BJ [10]): 0.585 µM (inconclusive)
IC50 [11]: > 39.5 µM (inactive)
EC50 [12]: 4.44 µM (active)
AC50 [13]: 3.99 µM (active)
AC50 [14]: 9.45 µM (active)
AC50 (INS1): 3.94 µM (active)

N#Cc1ccc(/N=c2\ssnc2Cl)cc1
EC50 (BJ [2]): > 150 µM (inconclusive)
AC50 [15]: 5.67 µM (active)
EC50 [4]: 14.3 µM (active)
IC50 [16]: > 100 µM (inactive)
IC50 [17]: 4.14 µM (active)
EC50 (BJ [6]): > 150 µM (inconclusive)
IC50 [18]: 6.34 µM (not active)
EC50 (BJ [7]): 6.16 µM (inconclusive)
IC50 (Phosphomannomutase 2): > 100 µM (inactive)
IC50 [19]: 7.33 µM (active)
